Measured values reported in US7247612B2, “Methods of treating an inflammatory disease with a JJT-1 polypeptide” (Japan Tobacco Inc., priority 1997, dated 2007).

Test system: rat lymphoblast cells activated with concanavalin A
Test: Aggregation of concanavalin A-activated rat lymphoblast cells
Type: cell-based
Conditions: ConA-activated rat lymphoblasts
Description: The hybridomas prepared in Example 1 were screened by analyzing the effect of the antibodies produced in the culture supernatant of the hybridomas on FTL435 cells, which were used as the immunogen. FTL435 cells (5×10^6 cells/ml, 0.1 ml) were seeded into each well of a 96-well microtiter plate and cultivated at 37° C. for an hour in the presence of culture supernatant of each hybridoma (10 μg/ml each).
In order to determine whether the aggregation of FTL435 cells induced by “JTT-1 antibody” stimulation was caused by the cell adhesion between intercellular adhesion molecule-1 (ICAM-1) and lymphocyte function-associated antigen-1 (LFA-1), which is a representative known pathway of cell adhesion, FTL435 cells were cultivated at 37° C. for an hour in the presence of anti-rat ICAM-1 antibody 1A29 (10 μg/ml; IgG1) or anti-rat LFA-1 antibody (10 μg/ml; IgG2a) together with “JTT-1 antibody.”
In order to further analyze the cell agglutination ability of “JTT-1 antibody,” the ability to agglutinate rat lymphoblast cells activated with concanavalin A stimulation was analyzed in the same manner as mentioned above.

CCCCCCCCCCCCCC(=O)O[C@@H]1[C@@H](C)[C@@]2(O)[C@@H](C=C(CO)C[C@]3(O)C(=O)C(C)=C[C@@H]23)[C@@H]2C(C)(C)[C@]12OC(C)=O [phorbol myristate acetate]
Aggregation of activated lymphoblast cells: no aggregation through cell adhesion unless they receive the stimulation
